The text below walks through data of paper PMC7842083 (Molecular pharmaceutics, 2020).

Like-named read-outs stand apart in the source and are kept apart here.

The conditions of data set [1]: for time at which plasma concentrations reached a maximum: oral administration.
The nature of data set [2]: in vivo. The note with it: female, po.
The conditions of data set [3]: 120 min, mean ± SD.
A short description of data set [4]: in vitro. The note with it: pH 6; for Papp at 120 min, 0.1 µCi/mL: APP/PS1, mouse; for Papp at 120 min: WT, mouse.
The conditions of data set [5]: oral administration; cited from earlier work.

The term Papp denotes the rate of passage across a membrane or cell layer, normalised by area and donor concentration. Read a high Papp as fast passage. Take `Cn1c(=O)c2c(ncn2C)n(C)c1=O` [Caffeine, caffeine]: the “time post-dose at which Cmax appeared” value in data set [1] (oral dose of 5 mg/kg, present study) came to 0.5 h. Moreover, the Kp lay within 0.63 to 2.82 in data set [2] (APP/PS1 (B6C3-Tg (APPswe, PSEN1dE9)85Dbo/Mmjax), mouse) and 1.07 to 2.78 in data set [2] (WT littermates of APP/PS1, mouse). Besides, the “% of initial amount at 2 h (absorbed through jejunal tissue)” value (“% of initial amount at 2 h” for short) in data set [3] (jejunum from APP/PS1 mice, listed as 14C-Caffeine) was found to be 0.46 ± 0.14%; in data set [3] (jejunum from APP/PS1 mice, listed as 14C-caffeine), 0.46%; in data set [3] (jejunum from WT mice, listed as 14C-Caffeine), 0.40 ± 0.09%; in data set [3] (jejunum from WT mice, listed as 14C-caffeine), 0.40%. The compound also showed a Papp at 120 min, 0.1 µCi/mL in data set [4] of 27.2 ± 13.8 ×10⁻⁶ cm/s. Further, the Papp at 120 min in data set [4] was found to be 31.4 ± 10.1 ×10⁻⁶ cm/s.
On to `CN1C(=O)CN=C(c2ccccc2)c2cc(Cl)ccc21` [Diazepam, diazepam], for which the “% of initial amount at 2 h” value in data set [3] (jejunum from APP/PS1 mice, listed as 3H-Diazepam) stood at 0.52 ± 0.12%; in data set [3] (jejunum from APP/PS1 mice, listed as 3H-diazepam) it was 0.52%; in data set [3] (jejunum from WT mice, listed as 3H-Diazepam), 0.42 ± 0.12%; in data set [3] (jejunum from WT mice, listed as 3H-diazepam) it was 0.42%.
With `C[C@H]1O[C@@H](O[C@H]2[C@@H](O)C[C@H](O[C@H]3[C@@H](O)C[C@H](O[C@H]4CC[C@@]5(C)[C@H](CC[C@@H]6[C@@H]5C[C@@H](O)[C@]5(C)[C@@H](C7=CC(=O)OC7)CC[C@]65O)C4)O[C@@H]3C)O[C@@H]2C)C[C@H](O)[C@@H]1O` [Digoxin, digoxin], the “time at which plasma concentrations reached a maximum” value in data set [1] (APP/PS1 mice) and in data set [1] (WT mice) was 0.5 h throughout. The “% of initial amount at 2 h” value in data set [3] (jejunum from APP/PS1 mice, listed as 3H-Digoxin) is given as 0.22 ± 0.11 %; in data set [3] (jejunum from APP/PS1 mice, listed as 3H-digoxin) it was 0.22 ± 0.11%; in data set [3] (jejunum from WT mice, listed as 3H-Digoxin), 0.85 ± 0.30%; in data set [3] (jejunum from WT mice, listed as 3H-digoxin), 0.85 ± 0.3%. In addition, the Papp at 120 min, 0.1 µCi/mL in data set [4] turned out to be 14.5 ± 11 ×10⁻⁶ cm/s. This compound also yielded a Papp at 120 min in data set [4] of 64.2 ± 39.4 ×10⁻⁶ cm/s.
In the case of `CCCCC(=O)N(Cc1ccc(-c2ccccc2-c2nnn[nH]2)cc1)[C@H](C(=O)O)C(C)C` [Valsartan, valsartan], the “time at which plasma concentrations reached a maximum” value in data set [1] (APP/PS1 mice) and in data set [1] (WT mice) was 1 h throughout. In addition, the apparent permeability coefficient (Papp) at 120 min in data set [4] was 55.8 ± 16.7 ×10⁻⁶ cm/s.
As to `OC[C@@H](O)[C@@H](O)[C@H](O)[C@H](O)CO` [^14C-Mannitol, mannitol], the “% of initial amount at 2 h” value in data set [3] (jejunum from APP/PS1 mice) came out at 0.12 ± 0.04 %. Besides, the “% of initial amount at 2 h” value in data set [3] (jejunum from WT mice) amounted to 0.17 ± 0.05%. In data set [4], this compound had a Papp at 120 min, 0.1 µCi/mL of 6 ± 3.4 ×10⁻⁶ cm/s and a Papp at 120 min of 10.7 ± 3.7 ×10⁻⁶ cm/s.
Consider `CCN(C)C(=O)Oc1cccc([C@H](C)N(C)C)c1` [rivastigmine], for which the “plasma concentrations in people with AD compared to healthy volunteers” value in data set [5] is “significantly higher”.
